Results from US8003649B2 (AstraZeneca AB, priority 2007, dated 2011).

target: T1, Androgen Receptor (AR) (Homo sapiens, UniProt P10275, T878A); test: LNCaP Androgen Receptor Down-regulation Cell Assay (immunofluorescence end point); format: cell-based; conditions: LNCaP prostate carcinoma cells, compound incubation 20-22 hours, 50% reduction of the AR signal; read-out: Androgen Receptor Down-regulation Assay (a) IC50/μM
T1 construct: cell based immuno-fluorescence assay using the LNCaP prostate epithelial cell line; endogenous in cells; host or cells: LNCaP clone FGC (ATCC CRL-1740)
T1 sequence (P10275 1-920 T878A): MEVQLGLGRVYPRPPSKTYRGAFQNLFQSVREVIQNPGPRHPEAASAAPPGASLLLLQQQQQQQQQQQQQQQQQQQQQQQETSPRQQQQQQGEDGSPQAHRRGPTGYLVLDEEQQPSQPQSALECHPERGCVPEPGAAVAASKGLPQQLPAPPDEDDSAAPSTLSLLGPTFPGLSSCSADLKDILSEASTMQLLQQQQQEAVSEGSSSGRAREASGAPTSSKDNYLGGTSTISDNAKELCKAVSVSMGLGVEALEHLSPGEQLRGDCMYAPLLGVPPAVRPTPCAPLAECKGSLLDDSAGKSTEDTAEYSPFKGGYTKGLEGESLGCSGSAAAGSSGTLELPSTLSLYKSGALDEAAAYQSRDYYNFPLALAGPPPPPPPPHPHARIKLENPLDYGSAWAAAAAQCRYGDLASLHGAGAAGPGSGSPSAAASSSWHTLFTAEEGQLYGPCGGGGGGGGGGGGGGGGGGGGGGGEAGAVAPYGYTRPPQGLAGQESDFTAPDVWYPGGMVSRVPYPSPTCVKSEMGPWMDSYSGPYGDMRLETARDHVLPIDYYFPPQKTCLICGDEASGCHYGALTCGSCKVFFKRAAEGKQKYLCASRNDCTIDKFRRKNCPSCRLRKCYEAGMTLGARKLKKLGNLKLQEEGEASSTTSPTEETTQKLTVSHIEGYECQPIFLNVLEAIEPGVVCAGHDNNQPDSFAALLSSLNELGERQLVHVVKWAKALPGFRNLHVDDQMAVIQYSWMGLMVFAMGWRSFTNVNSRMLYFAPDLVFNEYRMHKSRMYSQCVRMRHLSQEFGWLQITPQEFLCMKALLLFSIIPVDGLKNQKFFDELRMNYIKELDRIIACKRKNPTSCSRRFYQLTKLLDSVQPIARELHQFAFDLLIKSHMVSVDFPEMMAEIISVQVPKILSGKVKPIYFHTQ
Protocol: The ability of compounds to reduce Androgen Receptor (AR) numbers was assessed in a cell based immuno-fluorescence assay using the LNCaP prostate epithelial cell line.
a) LNCaP Androgen Receptor Down-regulation Cell Assay
A 5 ml volume of Growth Medium was added to each flask (as above except that 5% (v/v) charcoal stripped FBS (HyClone Code no. SH30068.03) was included instead of 10% (v/v) FBS). Cells were syringed at least twice using a sterile 18G×1.5″ (1.2×40 mm) broad gauge needle and cell density was measured using a haemocytometer.
Test data reported herein was generated using two different compounds preparation and dosing methods. In method (1) a 10 mM compound stock solution in 100% (v/v) DMSO was serially diluted in 4-fold steps in 100% (v/v) DMSO using a Thermo Scientific Matrix SerialMate. The diluted compounds were then further diluted 1 in 30 in assay media using a Thermo Scientific Matrix PlateMate and a 10 μl aliquot of this dilution was dosed to cells manually using a multi-channel pipette. In method (2) starting with a 10 mM compound stock solution, the Labcyte Echo 550 was used to generate a compound concentration response set diluted in 30 μl of assay media. The Echo 550 is a liquid handler that uses acoustic technology to perform direct microplate-to-microplate transfers of DMSO compound solutions. The system can be programmed to transfer volumes as low as […] in multiple increments between microplates and in so doing generates a serial dilution of compound which is then back-filled to normalise the DMSO concentration across the dilution range. A 10 μl volume of diluted compound is then dosed to cells using a Thermo Scientific Matrix PlateMate.
Plates were incubated overnight at 37° C., 5% CO2. Wells were then dosed with compound prepared by one of the 2 methods above and further incubated for 20-22 hours at 37° C., 5% CO2. […] This fixative solution was removed and cells were washed with 250 μl of PBS/0.05% (v/v) Tween 20 (PBST) using an automated plate washer. This process was then repeated twice more.
Immunostaining was performed at room temperature. Cells were permeabilised by the addition of 35 μl of PBS containing 0.5% Tween 20 and incubated for 1 hour at room temperature. Permeabilisation solution was removed and cells were washed with 250 μl of PBST using an automated plate washer. This process was then repeated twice more. 35 μl of Blocking Solution (PBST containing 3% (w/v) Marvel dried skimmed milk (Nestle)) was added to each well and plates were incubated at room temperature for a minimum of 1 hour. […] Then this primary antibody solution was removed from the wells followed by 3×100 μl PBST washes using a plate washer. […] Henceforth, wherever possible, plates were protected from light exposure. The plates were incubated for 1 hour and then the secondary antibody solution was removed from the wells followed by 3×100 ul PBST washes using a plate washer. Then 50 μl of PBST was added to each well and plates were covered with a black plate seal and stored at 4° C. before being read. Plates were read within six hours of completing the immunostaining.
The Green Fluorescent AR-associated signal in each well was measured using an Acumen Explorer HTS Reader (TTP Labtech Ltd., Cambridge). […] The instrument is a laser-scanning fluorescence microplate cytometer which samples the well at regular intervals and uses threshold algorithms to identify all fluorescent intensities above the solution background without the need to generate and analyse an image. These fluorescent objects can be quantified and provide a measure of the AR levels in cells. Fluorescence dose response data obtained with each compound was exported into a suitable software package (such as Origin) to perform curve fitting analysis. Down-regulation of AR levels was expressed as an IC50 value.

Row | SMILES | DC50 [µM]
1 | FC(F)C(F)(F)c1nnc2ccc(N3CCN(C(c4ccccc4)c4ccccc4)CC3)nn12 [Example 1, 6-(4-benzhydrylpiperazin-1-yl)-3-(1,1,2,2-tetrafluoroethyl)-[1,2,4]triazolo[4,3-b]pyridazine] | 3.4
2 | FC(F)C(F)(F)c1nnc2ccc(N3CCCN(Cc4ccccc4)CC3)nn12 [Example 2, 6-(4-benzyl-1,4-diazepan-1-yl)-3-(1,1,2,2-tetrafluoroethyl)-[1,2,4]triazolo[4,3-b]pyridazine] | 8.3
3 | FC(F)c1nnc2ccc(N3CCCN(Cc4ccccc4)CC3)nn12 [Example 6, 6-(4-benzyl-1,4-diazepan-1-yl)-3-(difluoromethyl)-[1,2,4]triazolo[4,3-b]pyridazine] | 7.5
4 | Clc1nnc2ccc(N3CCN(C(c4ccccc4)c4ccccc4)CC3)nn12 [Example 8, 6-(4-benzhydrylpiperazin-1-yl)-3-chloro-[1,2,4]triazolo[4,3-b]pyridazine] | 1.7
5 | CSc1nnc2ccc(N3CCN(C(c4ccccc4)c4ccccc4)CC3)nn12 [Example 9, 6-(4-benzhydrylpiperazin-1-yl)-3-methylsulfanyl-[1,2,4]triazolo[4,3-b]pyridazine] | 1.7
6 | FC(F)(F)c1nnc2ccc(N3CCN(c4ccc(Br)cn4)CC3)nn12 [Example 11, 6-[4-(5-bromopyridin-2-yl)piperazin-1-yl]-3-(trifluoromethyl)-[1,2,4]triazolo[4,3-b]pyridazine] | 2.5
7 | Cc1cc(N2CCN(Cc3ccc(C#N)cc3)CC2)nn2c(C(F)(F)F)nnc12 [Example 12, 4-((4-(8-Methyl-3-(trifluoromethyl)-[1,2,4]triazolo[4,3-b]pyridazin-6-yl)piperazin-1-yl)methyl)benzonitrile] | 4.3
8 | Cc1cc2nnc(C(F)(F)F)n2nc1N1CCN(Cc2ccc(C#N)cc2)CC1 [Example 13, 4-((4-(7-Methyl-3-(trifluoromethyl)-[1,2,4]triazolo[4,3-b]pyridazin-6-yl)piperazin-1-yl)methyl)benzonitrile] | 8.4
9 | COc1ccc(CN2CCN(c3ccc4nnc(C(F)(F)F)n4n3)CC2)cc1 [Example 15, 6-[4-[(4-methoxyphenyl)methyl]piperazin-1-yl]-3-(trifluoromethyl)-[1,2,4]triazolo[4,3-b]pyridazine] | 2.5
10 | CC(=O)c1ccc(N2CCN(c3ccc4nnc(C(F)(F)F)n4n3)CC2)cc1 [Example 17, 1-[4-[4-[3-(trifluoromethyl)-[1,2,4]triazolo[4,3-b]pyridazin-6-yl]piperazin-1-yl]phenyl]ethanone] | 2.5
11 | O=C1NCN(c2ccccc2)C12CCN(c1ccc3nnc(C(F)(F)F)n3n1)CC2 [Example 20, 1-phenyl-8-[3-(trifluoromethyl)-[1,2,4]triazolo[4,3-b]pyridazin-6-yl]-1,3,8-triazaspiro[4.5]decan-4-one] | 1.8
12 | O=C(CN1CCN(c2ccc3nnc(C(F)(F)F)n3n2)CC1)N1CCCCC1 [Example 24, 1-piperidin-1-yl-2-[4-[3-(trifluoromethyl)-[1,2,4]triazolo[4,3-b]pyridazin-6-yl]piperazin-1-yl]ethanone] | > 26
13 | Cc1cc(NCC2CC[C@@H]3CN(c4ccc5nnc(C(F)(F)F)n5n4)CCN3C2)c2ccccc2n1 (stereo partly drawn) [Example 28, N-[[(9aR)-2-[3-(trifluoromethyl)-[1,2,4]triazolo[4,3-b]pyridazin-6-yl]-1,3,4,6,7,8,9,9a-octahydropyrido[1,6-a]pyrazin-7-yl]methyl]-2-methylquinolin-4-amine] | 2.8
14 | Fc1ccc(N2CCN(c3ccc4nnc(C(F)(F)F)n4n3)CC2)c(F)c1 [Example 29, 6-[4-(2,4-difluorophenyl)piperazin-1-yl]-3-(trifluoromethyl)-[1,2,4]triazolo[4,3-b]pyridazine] | 4.2

Now those with a lower DC50, led by results:

Row | DC50 [µM] | SMILES
15 | 1.6 | FC(F)c1nnc2ccc(N3CCN(C(c4ccccc4)c4ccccc4)CC3)nn12 [Example 5, 6-(4-benzhydrylpiperazin-1-yl)-3-(difluoromethyl)-[1,2,4]triazolo[4,3-b]pyridazine]
16 | 1.4 | FC(F)(F)c1nnc2ccc(N3CCN(C(c4ccccc4)c4ccccc4)CC3)nn12 [Example 22, 6-(4-benzhydrylpiperazin-1-yl)-3-(trifluoromethyl)-[1,2,4]triazolo[4,3-b]pyridazine]
17 | 1.1 | COc1ccc(C(c2ccccc2)N2CCN(c3ccc4nnc(C(F)(F)F)n4n3)CC2)cc1 (centres unmarked) [Example 25, 6-[4-[(4-methoxyphenyl)-phenylmethyl]piperazin-1-yl]-3-(trifluoromethyl)-[1,2,4]triazolo[4,3-b]pyridazine]
18 | 1 | FC(F)(F)c1ccc(C(c2ccccc2)N2CCN(c3ccc4nnc(C(F)(F)F)n4n3)CC2)cc1 (centres unmarked) [Example 26, 6-[4-[phenyl-[4-(trifluoromethyl)phenyl]methyl]piperazin-1-yl]-3-(trifluoromethyl)-[1,2,4]triazolo[4,3-b]pyridazine]
19 | 0.77 | Cc1cccc(C)c1N1CCN(c2ccc3nnc(C(F)(F)F)n3n2)CC1 [Example 16, 6-[4-(2,6-dimethylphenyl)piperazin-1-yl]-3-(trifluoromethyl)-[1,2,4]triazolo[4,3-b]pyridazine]
20 | 0.69 | FC(F)(F)c1nnc2ccc(N3CCN(Cc4ccc(Cl)cc4)CC3)nn12 [Example 14, 6-[4-[(4-chlorophenyl)methyl]piperazin-1-yl]-3-(trifluoromethyl)-[1,2,4]triazolo[4,3-b]pyridazine]
21 | 0.52 | FC(F)(F)c1nnc2ccc(N3CCN(c4c(Cl)cncc4Cl)CC3)nn12 [Example 19, 6-[4-(3,5-dichloropyridin-4-yl)piperazin-1-yl]-3-(trifluoromethyl)-[1,2,4]triazolo[4,3-b]pyridazine]
22 | 0.45 | FC(F)(F)c1nnc2ccc(N3CCN(CCc4ccccc4)CC3)nn12 [Example 23, 6-(4-phenethylpiperazin-1-yl)-3-(trifluoromethyl)-[1,2,4]triazolo[4,3-b]pyridazine]
23 | 0.27 | O=[N+]([O-])c1ccc(N2CCN(c3ccc4nnc(C(F)(F)F)n4n3)CC2)cc1 [Example 21, 6-[4-(4-nitrophenyl)piperazin-1-yl]-3-(trifluoromethyl)-[1,2,4]triazolo[4,3-b]pyridazine]
